Data from patent US12583848B2, “Isoxazole-3-carboxamide derivatives and their use for treatment of diseases caused by virus infection” (Collaborations Pharmaceuticals, Inc., priority 2019, dated 2026).
≈ marks a conversion by molar mass, not a printed value. Where “and” joins values, the source holds several entries; their conditions need not be identical. Identical values can stand only once. Like-named read-outs stand apart in the source and are kept apart here.

Experiments:
[1] = system: CVB3 97927-I1207K (pleconaril-resistant variant); assay type: cell-based, coxsackievirus B3
[2] = system: CVB3 97927-I1207M (pleconaril-resistant variant); assay type: cell-based, coxsackievirus B3
[3] = system: CVB3 97927-I1207T (pleconaril-resistant variant); assay type: cell-based, coxsackievirus B3
rhinovirus A2 (RV-A2) = assay: organism not typed; assay type: cell-based; settings: HeLa, 72 h, read-out: IC50 against Rhinoviruses (RV) RV-A2
rhinovirus B5 (RV-B5) = assay: organism not typed; assay type: cell-based; settings: HeLa cells, CPE inhibition, 72 hours; n.a. = not active; read-out: IC50 against Rhinoviruses (RV) RV-B5
rhinovirus B14 (RV-B14) = assay: organism not typed; assay type: cell-based; settings: HeLa, 72 h, read-out: IC50 against Rhinoviruses (RV) RV-B14
[4] = Pharmacokinetic study in mice; assay type: in vivo, white BALB/c male mice
Description: The pharmacokinetics of the compound 8 has been studied in white BALB/c male mice. 22 animals with average body weight of 20 g were selected for the study. Before the experiment the animals were kept on standard vivarium ration with dry pelleted feed. All the test animals had free access to water but were deprived of food for 1 hour before administration of the compound. This regimen was continued for another hour after the administration. […] The animals were euthanized by decapitation for blood sampling. […] Blood was collected in heparinized tubes and centrifuged at 3500 RPM. Plasma was separated from formed elements and immediately frozen at -20° C. in freezer. This storage continued before transferring of plasma for analysis. Serum from 6 untreated animals was used as control and for equipment calibration with compound. Mice brain was immediately frozen at -120° C. Plasma separation: […] Sample preparation: A mixture of 50 μL of plasma and 150 μL of MeCN by intensive shaking (Vortex) for 30 sec. Centrifugation 14000 g for 4 min. […] See also FIG. 1.

[5] = system: polio virus-1 (strain Mahoney); assay: organism not typed; assay type: cell-based; design: SI50: unit not given beside the values
[6] = system: Enterovirus 68 (strain US/KY/14-18953); assay: microbe, parasite or virus in culture; assay type: cell-based; design: SI50: unit not given beside the values
[7] = system: enterovirus 71 (strain Tainan/4643/98); assay: microbe, parasite or virus in culture; assay type: cell-based; design: SI50: unit not given beside the values
[8] = system: influenza A virus, subtype H1N1 (strain California/07/2009); assay: microbe, parasite or virus in culture; assay type: cell-based; design: SI50: unit not given beside the values
mouse-adapted EV D68 = assay: microbe, parasite or virus in culture; assay type: cell-based; design: SI50: unit not given beside the values
Solubility = assay type: physicochemical; settings: pH 7.4, aqueous buffer
Description: (§1) In vitro ADME studies were performed on compound 8.

[9] = Cell permeability (Caco-2); assay type: in vitro ADME; settings: human, Caco-2
Description: (§2) In vitro ADME studies were performed on compound 8. Cell permeability (Caco-2) results were as follows: Apical (A) to (Basolateral) B 8.8×10^−4 cm/s; […]

Caco-2 = assay: Cell permeability (Caco-2); assay type: in vitro ADME; settings: concluded from Caco-2 efflux
Description: as §2

[10] = Microsomal stability, mouse liver microsomes; assay type: in vitro ADME
Description: as §1

[11] = Microsomal stability, human liver microsomes; assay type: in vitro ADME
Description: as §1

Protein binding, human = assay type: in vitro ADME
Description: as §1

Protein binding, mouse = assay type: in vitro ADME
Description: as §1

[12] = system: Enterovirus D68 (EV-D68 MP30 PP); assay type: in vivo, AG129 mice; settings: for weight loss (percentage of initial body weight) following infection: 100 mg/kg/d PO, EV-D68 infected AG129 mice, days 1-5
[13] = system: viruses resistant to pleconaril; assay: Inhibition of replication of a broad spectrum of EV in vitro; assay type: cell-based; settings: read-out: IC50 values for viruses resistant to pleconaril
HeLa cells = settings: human
CYP3A4 = settings: for CYP3A4 induction, % of control: control = rifampicin; for CYP3A4 induction (fold): cryopreserved hepatocytes, midazolam substrate
[14] = mouse, in vivo, po
PXR = PXR (Homo sapiens, UniProt O75469); assay: biochemical
Sequence of PXR (O75469 111-434 limits assumed): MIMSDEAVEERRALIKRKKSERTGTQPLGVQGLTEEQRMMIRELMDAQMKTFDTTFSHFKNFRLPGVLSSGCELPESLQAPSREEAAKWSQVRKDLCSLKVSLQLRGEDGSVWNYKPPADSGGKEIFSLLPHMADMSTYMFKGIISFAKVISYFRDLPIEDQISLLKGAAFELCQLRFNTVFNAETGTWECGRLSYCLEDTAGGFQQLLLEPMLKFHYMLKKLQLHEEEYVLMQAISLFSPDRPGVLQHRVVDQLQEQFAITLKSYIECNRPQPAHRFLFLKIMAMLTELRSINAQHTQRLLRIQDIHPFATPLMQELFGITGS

[15] = mice, 100 mg/kg intragastric, plasma
[16] = read-out: Protein binding, bound (converted)

SMILES: Cc1cc(-c2noc(C(F)(F)F)n2)ccc1OCCCc1cc(C(=O)N(C)C)no1 [Compound 8, N,N-dimethyl-5-(3-{2-methyl-4-[5-(trifluoromethyl)-1,2,4-oxadiazol-3-yl]phenoxy}propyl)isoxazole-3-carboxamide]
- IC50 [1]: 3670 nM
- IC50 [2]: 4 nM
- IC50 [3]: 10 nM
- IC50 (rhinovirus A2 (RV-A2)): 410 nM
- IC50 (rhinovirus B5 (RV-B5)): 2260 nM
- IC50 (rhinovirus B14 (RV-B14)): 70 nM
- Concentration in mice plasma ([4]; 0.50 hours, individual mice, 100 mg/kg intragastric, 100 mg/kg): 963.29 ng/mL and 2031.52 ng/mL and 1979.28 ng/mL and 2114.06 ng/mL and 1464.12 ng/mL
- Concentration in mice plasma ([4]; 1 hour, individual mice, 100 mg/kg intragastric, 100 mg/kg): 660.65 ng/mL and 1138.34 ng/mL
- Concentration in mice plasma ([4]; 2 hours, individual mice, 100 mg/kg intragastric, 100 mg/kg): 667.90 ng/mL and 379.89 ng/mL and 461.99 ng/mL
- Concentration in mice plasma ([4]; 3 hours, individual mice, 100 mg/kg intragastric, 100 mg/kg): 344.86 ng/mL and 107.10 ng/mL and 403.55 ng/mL
- Concentration in mice plasma ([4]; 5 hours, individual mice, 100 mg/kg intragastric, 100 mg/kg): 228.15 ng/mL and 74.82 ng/mL and 147.00 ng/mL
- Concentration in mice plasma ([4]; 7 hours, individual mice, 100 mg/kg intragastric, 100 mg/kg): 90.82 ng/mL and 44.49 ng/mL and 13.49 ng/mL and 45.70 ng/mL
- concentration at 0.5 h ([4]; male, BALB/c, mouse, plasma, oral, 100 mg/kg, 0.50 hours, 100 mg/kg intragastric): 1710 ng/mL
- concentration at 1 h ([4]; male, BALB/c, mouse, plasma, oral, 100 mg/kg, 1 hour, 100 mg/kg intragastric, read-out: Concentration in mice plasma, Average): 966 ng/mL
- concentration at 1 h ([4]; male, BALB/c, mouse, plasma, oral, 100 mg/kg, 1 hour, individual mice, 100 mg/kg intragastric, read-out: Concentration in mice plasma): 1100 ng/mL
- concentration at 2 h ([4]; male, BALB/c, mouse, plasma, oral, 100 mg/kg, 2 hours, 100 mg/kg intragastric, read-out: Concentration in mice plasma, Average): 536 ng/mL
- concentration at 2 h ([4]; male, BALB/c, mouse, plasma, oral, 100 mg/kg, 2 hours, individual mice, 100 mg/kg intragastric, read-out: Concentration in mice plasma): 634 ng/mL
- concentration at 3 h ([4]; male, BALB/c, mouse, plasma, oral, 100 mg/kg, 3 hours, 100 mg/kg intragastric): 285 ng/mL
- concentration at 5 h ([4]; male, BALB/c, mouse, plasma, oral, 100 mg/kg, 5 hours, 100 mg/kg intragastric): 124 ng/mL
- concentration at 7 h ([4]; male, BALB/c, mouse, plasma, oral, 100 mg/kg, 7 hours, 100 mg/kg intragastric): 49.6 ng/mL
- AUC ([4]; male, BALB/c, mouse, po, mice, 100 mg/kg intragastric, plasma, read-out: AUC0-oo): 3020 ng·h/mL
- oral bioavailability ([4]; mice): very high oral bioavailability
- CL [4, 15]: 0.66 L/h
- Cmax. [4, 15]: 1710.5 ± 489.2 ng/mL
- MRT [4, 15]: 129 min
- T1/2 [4, 15]: 94.8 min
- Tmax. [4, 15]: 30 min
- Vd [4, 15]: 1.52 L
- kel [4, 15]: 0.4373 h⁻¹
- SI50 [5]: 11
- EC50 ([5]; Vero 76): 320 nM
- SI50 [6]: >520
- EC50 ([6]; Enterovirus D): 18 nM
- SI50 [7]: 24
- EC50 ([7]; Enterovirus A, Vero 76): 940 nM
- SI50 [8]: 4.3
- EC90 ([8]; Influenza A virus, H1N1): 4400 nM
- SI50 (mouse-adapted EV D68): 173
- EC50 (mouse-adapted EV D68; Enterovirus D, EVD68): 23 nM
- solubility (Solubility): 0.11 µM (≈ 0.0467 µg/mL)
- efflux ratio [9]: 3.5
- P-gp substrate (Caco-2): likely P-gp substrate
- microsomal stability (verdict) [10]: unstable
- half-life ([10]; read-out: half-life (t1/2)): 19.6 min
- microsomal CLint ([10]; read-out: intrinsic clearance (CLint)): 70.6 µL/min/mg
- half-life [11]: 55.3 min
- microsomal CLint [11]: 25.1 µL/min/mg
- Protein binding, stability (Protein binding, human): 93.9%
- fraction unbound (Protein binding, human; [16]): 0.003
- Protein binding, stability (Protein binding, mouse): 88.1%
- fraction unbound (Protein binding, mouse; [16]): 0.002
- weight loss (percentage of initial body weight) following infection [12]: protected mice from weight loss
- weight loss (percentage of initial body weight) following infection ([12]; listed as compound 8): significant protection from weight loss
- blood virus ([12]; day 5 post-infection): No virus was detected
- IC50 [13]: 40 to 640 nM
- CC50 (HeLa cells): 13400 nM
- CYP3A4 induction, % of control (CYP3A4; 1 μM): 3 % of control
- CYP3A4 induction (fold) (CYP3A4; 1 μM): 1.2 ×
- CYP3A4 induction, % of control (CYP3A4; 10 μM): 7 % of control
- CYP3A4 induction (fold) (CYP3A4; 10 μM): 1.4 ×
- Mutagenicity (Escherichia coli PQ37): NO
- Maximum tolerated dose (MTD) [14]: at least 100 milligrams per kilogram body weight per day
- CC50 (in vitro): 52000 nM
- IC50 (PXR): > 100000 nM
